According to patent US20090029992A1, “SUBSTITUTED PYRAZOLE COMPOUNDS” (priority 2007, published 2009):

How the values were obtained:
[1] = target: T1, N-terminal His6-tagged recombinant human KDR, residues 790-end (Homo sapiens, UniProt P35968); test: KDR kinase inhibition assay (33P-ATP filter assay); assay type: biochemical
T1 construct: recombinant human KDR, residues 790-end; His6 (N); purchased Upstate USA Inc, 706 Forest Street, Charlottesville, Va
How it was run: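 Radiometric filter assay: reaction started with Mg acetate (10 mM)/[γ-33P]ATP mix, run 40 min at room temperature in 8 mM MOPS pH 7.0 with 0.2 mM EDTA, MBP substrate (0.33 mg/mL) and recombinant KDR 790-end (5-10 mU). Phosphate incorporation by scintillation counting of P30 filtermats, compared with uninhibited reactions.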

[2] = target: T2, N-terminal GST-tagged recombinant human Flt3, residues 564-end (Homo sapiens, UniProt P36888); test: Flt3 kinase inhibition assay (33P-ATP filter assay); assay type: biochemical; settings: 40 minutes at room temperature
T2 construct: recombinant human Flt3, residues 564-end; GST (N); purchased Upstate USA Inc, 706 Forest Street, Charlottesville, Va
T2 sequence (P36888 564-993 limits assumed): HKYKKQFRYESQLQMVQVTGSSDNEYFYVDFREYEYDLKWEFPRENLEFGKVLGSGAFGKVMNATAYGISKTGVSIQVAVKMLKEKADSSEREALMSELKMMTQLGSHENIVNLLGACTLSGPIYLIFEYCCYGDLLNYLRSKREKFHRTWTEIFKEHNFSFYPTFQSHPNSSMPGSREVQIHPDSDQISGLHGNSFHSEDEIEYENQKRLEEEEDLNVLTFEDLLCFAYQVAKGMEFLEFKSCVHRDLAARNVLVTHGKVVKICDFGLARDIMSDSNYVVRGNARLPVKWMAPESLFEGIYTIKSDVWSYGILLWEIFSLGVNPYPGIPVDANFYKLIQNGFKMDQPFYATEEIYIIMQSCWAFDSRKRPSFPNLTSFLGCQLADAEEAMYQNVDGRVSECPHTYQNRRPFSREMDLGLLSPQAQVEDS
How it was run: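 Serial compound dilutions incubated 40 min at room temperature with 5-10 mU Flt3 kinase, 50 μM peptide substrate and [γ-33P]ATP/10 mM magnesium acetate, pH 7.0. Phosphoric acid stop, filter capture and scintillation counting; activity compared with uninhibited reactions.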

[3] = group with IC50 greater than 100 nM

T1 sequence (P35968 790-1356 limits assumed): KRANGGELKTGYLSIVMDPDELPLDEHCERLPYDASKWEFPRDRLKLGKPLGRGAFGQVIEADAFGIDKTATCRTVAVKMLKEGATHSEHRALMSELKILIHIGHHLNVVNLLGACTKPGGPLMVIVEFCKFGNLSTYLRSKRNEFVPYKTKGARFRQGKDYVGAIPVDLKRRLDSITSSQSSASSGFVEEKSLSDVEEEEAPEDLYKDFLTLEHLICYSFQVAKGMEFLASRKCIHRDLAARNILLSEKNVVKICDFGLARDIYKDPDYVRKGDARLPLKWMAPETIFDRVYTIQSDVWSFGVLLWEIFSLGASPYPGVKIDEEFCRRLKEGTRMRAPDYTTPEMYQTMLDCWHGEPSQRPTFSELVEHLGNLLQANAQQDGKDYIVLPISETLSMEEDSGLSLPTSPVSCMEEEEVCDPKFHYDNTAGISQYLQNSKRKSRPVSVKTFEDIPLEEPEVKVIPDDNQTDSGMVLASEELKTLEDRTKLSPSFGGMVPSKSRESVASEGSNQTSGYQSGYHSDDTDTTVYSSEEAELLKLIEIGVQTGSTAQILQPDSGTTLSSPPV

| IC50 ([1]; 40 minutes at room temperature) [nM] | IC50 [2] [nM] | IC50 [1, 3] [nM] | SMILES |
| --- | --- | --- | --- |
| ≤ 100 | ≤ 100 |  | Cc1cc(Nc2cc(NCCN3CCOCC3)nc(-c3ccccc3)n2)n[nH]1 [Compound 11, N^4-(5-methyl-1H-pyrazol-3-yl)-N^6-(2-morpholinoethyl)-2-phenylpyrimidine-4,6-diamine] |
| ≤ 100 | ≤ 100 |  | COc1ccc(-c2nc(Nc3cc(C)[nH]n3)cc(N3CCN(C)CC3)n2)cc1 [Compound 41, 2-(4-methoxyphenyl)-N-(5-methyl-1H-pyrazol-3-yl)-6-(4-methylpiperazin-1-yl)pyrimidin-4-amine] |
| ≤ 100 | ≤ 100 |  | COCCN(C)c1cc(Nc2cc(C)[nH]n2)nc(-c2cc(F)ccc2F)n1 [Example 184, 2-(2,5-difluorophenyl)-N^4-(2-methoxyethyl)-N^4-methyl-N^6-(5-methyl-1H-pyrazol-3-yl)pyrimidine-4,6-diamine] |
| ≤ 100 | ≤ 100 |  | Cc1cc(Nc2cc(N3CCN(C)CC3)nc(-c3cc4ccccc4o3)n2)n[nH]1 [Compound 1, 2-(benzofuran-2-yl)-N-(5-methyl-1H-pyrazol-3-yl)-6-(4-methylpiperazin-1-yl)pyrimidin-4-amine] |
|  | ≤ 100 | ≤ 1000 | Cc1cc(Nc2cc(N3CCN(C)CC3)nc(-c3ccc(F)c(F)c3)n2)n[nH]1 [Example 168, 2-(3,4-difluorophenyl)-N-(5-methyl-1H-pyrazol-3-yl)-6-(4-methylpiperazin-1-yl)pyrimidin-4-amine] |
| ≤ 100 | ≤ 100 |  | Cc1cc(Nc2cc(N3CCN(C)CC3)nc(-c3cccc4ccoc34)n2)n[nH]1 [Example 203, 2-(benzofuran-7-yl)-N-(5-methyl-1H-pyrazol-3-yl)-6-(4-methylpiperazin-1-yl)pyrimidin-4-amine] |
| ≤ 100 | ≤ 100 |  | Cc1cc(Nc2cc(N3CCN(C)CC3)nc(-c3cc4cc(NS(=O)(=O)C5CC5)ccc4o3)n2)n[nH]1 [Example 155, N-(2-(4-(5-methyl-1H-pyrazol-3-ylamino)-6-(4-methylpiperazin-1-yl)pyrimidin-2-yl)benzofuran-5-yl)cyclopropanesulfonamide] |
|  | ≤ 100 | ≤ 1000 | COc1ccc(-c2nc(Nc3cc(C)[nH]n3)cc(N(C)CCN(C)C)n2)cc1 [Compound 54, N^4-(2-(dimethylamino)ethyl)-2-(4-methoxyphenyl)-N^4-methyl-N^6-(5-methyl-1H-pyrazol-3-yl)pyrimidine-4,6-diamine] |
|  | ≤ 100 | ≤ 1000 | COCCN(C)c1cc(Nc2cc(C)[nH]n2)nc(-c2cccc(Cl)c2)n1 [Compound 62, 2-(3-chlorophenyl)-N^4-(2-methoxyethyl)-N^4-methyl-N^6-(5-methyl-1H-pyrazol-3-yl)pyrimidine-4,6-diamine] |
| ≤ 100 | ≤ 100 |  | Cc1cc(Nc2cc(N3CCN(C)CC3)nc(-c3ccc(Cl)cc3)n2)n[nH]1 [Compound 35, 2-(4-chlorophenyl)-N-(5-methyl-1H-pyrazol-3-yl)-6-(4-methylpiperazin-1-yl)pyrimidin-4-amine] |
| ≤ 100 | ≤ 100 |  | Cc1cc(Nc2cc(NC3CCOCC3)nc(-c3ccccc3)n2)n[nH]1 [Compound 12, N^4-(tetrahydro-2H-pyran-4-yl)-N^6-(5-methyl-1H-pyrazol-3-yl)-2-phenylpyrimidine-4,6-diamine] |
|  | ≤ 100 | ≤ 1000 | Cc1cc(Nc2cc(N3CCN(C)CC3)nc(-c3cccnc3)n2)n[nH]1 [Compound 89, N-(5-methyl-1H-pyrazol-3-yl)-6-(4-methylpiperazin-1-yl)-2-(pyridin-3-yl)pyrimidin-4-amine] |
| ≤ 100 | ≤ 100 |  | CC(=O)N1CCN(c2cc(Nc3cc(C)[nH]n3)nc(-c3cc4ccccc4n3C)n2)CC1 [Compound 6, 1-(4-(6-(5-methyl-1H-pyrazol-3-ylamino)-2-(1-methyl-1H-indol-2-yl)pyrimidin-4-yl)-piperazin-1-yl)ethanone] |
| ≤ 100 | ≤ 100 |  | Cc1cc(C)cc(-c2nc(Nc3cc(C)[nH]n3)cc(N3CCN(C)CC3)n2)c1 [Example 169, 2-(3,5-dimethylphenyl)-N-(5-methyl-1H-pyrazol-3-yl)-6-(4-methylpiperazin-1-yl)pyrimidin-4-amine] |
|  | ≤ 100 | ≤ 1000 | Cc1cc(Nc2cc(NC3CCOCC3)nc(-c3cccc(-c4ccccc4)c3)n2)n[nH]1 [Example 159, 2-(biphenyl-3-yl)-N^4-(5-methyl-1H-pyrazol-3-yl)-N^6-(tetrahydro-2H-pyran-4-yl)pyrimidine-4,6-diamine] |
|  | ≤ 100 | ≤ 1000 | Cc1cccc(-c2nc(Nc3cc(C)[nH]n3)cc(N(C)CCN(C)C)n2)c1 [Compound 52, N^4-(2-(dimethylamino)ethyl)-N^4-methyl-N^6-(5-methyl-1H-pyrazol-3-yl)-2-m-tolylpyrimidine-4,6-diamine] |
|  | ≤ 100 | ≤ 1000 | Cc1cc(Nc2cc(N3CCN(C)CC3)nc(-c3ccc(F)cc3)n2)n[nH]1 [Compound 32, 2-(4-fluorophenyl)-N-(5-methyl-1H-pyrazol-3-yl)-6-(4-methylpiperazin-1-yl)pyrimidin-4-amine] |

Further lines, the compound ahead of its results:

| SMILES | IC50 ([1]; 40 minutes at room temperature) [nM] | IC50 [2] [nM] | IC50 [1, 3] [nM] |
| --- | --- | --- | --- |
| Cc1cc(Nc2cc(N3CCN(C)CC3)nc(-c3ccccc3C)n2)n[nH]1 [Compound 40, N-(5-methyl-1H-pyrazol-3-yl)-6-(4-methylpiperazin-1-yl)-2-o-tolylpyrimidin-4-amine] | ≤ 100 | ≤ 100 |  |
| Cc1cc(Nc2cc(N(C)CCN(C)C)nc(-c3cc4ccccc4n3C)n2)n[nH]1 [Compound 4, N^4-(2-(dimethylamino)ethyl)-N^4-methyl-2-(1-methyl-1H-indol-2-yl)-N^6-(5-methyl-1H-pyrazol-3-yl)pyrimidine-4,6-diamine] |  | ≤ 100 | ≤ 1000 |
| Cc1cc(Nc2cc(NC3CCOCC3)nc(-c3cccc4ccoc34)n2)n[nH]1 [Example 204, 2-(benzofuran-7-yl)-N^4-(5-methyl-1H-pyrazol-3-yl)-N^6-(tetrahydro-2H-pyran-4-yl)pyrimidine-4,6-diamine] |  | ≤ 100 | ≤ 1000 |
| Cc1cc(Nc2cc(NC3CCOCC3)nc(-c3ccc(F)cc3)n2)n[nH]1 [Compound 19, 2-(4-fluorophenyl)-N^4-(5-methyl-1H-pyrazol-3-yl)-N^6-(tetrahydro-2H-pyran-4-yl)pyrimidine-4,6-diamine] |  | ≤ 100 | ≤ 1000 |
| Cc1cc(Nc2cc(N3CCN(C)CC3)nc(-c3cc(F)ccc3C)n2)n[nH]1 [Example 196, 2-(5-fluoro-2-methylphenyl)-N-(5-methyl-1H-pyrazol-3-yl)-6-(4-methylpiperazin-1-yl)pyrimidin-4-amine] | ≤ 100 | ≤ 100 |  |
| Cc1cc(Nc2cc(NC3CCOCC3)nc(-c3cc4ccccc4n3C)n2)n[nH]1 [Compound 7, N^4-(tetrahydro-2H-pyran-4-yl)-2-(1-methyl-1H-indol-2-yl)-N^6-(5-methyl-1H-pyrazol-3-yl)pyrimidine-4,6-diamine] |  | ≤ 100 | ≤ 1000 |
| Cc1cc(Nc2cc(N3CCN(C)CC3)nc(-c3cccc4ccccc34)n2)n[nH]1 [Example 134, N-(5-methyl-1H-pyrazol-3-yl)-6-(4-methylpiperazin-1-yl)-2-(naphthalen-1-yl)pyrimidin-4-amine] | ≤ 100 | ≤ 100 |  |
| COCCN(C)c1cc(Nc2cc(C)[nH]n2)nc(-c2cccc(N(C)C)c2)n1 [Compound 119, 2-(3-(dimethylamino)phenyl)-N^4-(2-methoxyethyl)-N^4-methyl-N^6-(5-methyl-1H-pyrazol-3-yl)pyrimidine-4,6-diamine] |  | ≤ 100 | ≤ 1000 |
| Cc1ccc(F)c(-c2nc(Nc3cc(C)[nH]n3)cc(N3CCN(C)CC3)n2)c1 [Example 193, 2-(2-fluoro-5-methylphenyl)-N-(5-methyl-1H-pyrazol-3-yl)-6-(4-methylpiperazin-1-yl)pyrimidin-4-amine] | ≤ 100 | ≤ 100 |  |
| Cc1cc(Nc2cc(N3CCN(C)CC3)nc(-c3cccc(N(C)C)c3)n2)n[nH]1 [Compound 86, 2-(3-(dimethylamino)phenyl)-N-(5-methyl-1H-pyrazol-3-yl)-b-(4-methylpiperazin-1-yl)pyrimidin-4-amine] |  | ≤ 100 |  |
| Cc1cc(Nc2cc(NC3CCOCC3)nc(-c3ccc(-c4ccccc4)cc3)n2)n[nH]1 [Example 158, 2-(biphenyl-4-yl)-N^4-(5-methyl-1H-pyrazol-3-yl)-N^6-(tetrahydro-2H-pyran-4-yl)pyrimidine-4,6-diamine] |  | ≤ 100 |  |
| Cc1cc(Nc2cc(N3CCN(C)CC3)nc(-c3ccc([N+](=O)[O-])cc3)n2)n[nH]1 [Example 164, N-(5-methyl-1H-pyrazol-3-yl)-6-(4-methylpiperazin-1-yl)-2-(4-nitrophenyl)pyrimidin-4-amine] |  | ≤ 100 |  |
